These results are taken from patent publication US5808040A, “L-nucleosides incorporated into polymeric structure for stabilization of oligonucleotides” (priority 1997, dated 1998).

SMILES strings stand for the structures. Bounds are passed on as bounds.

The subject of one data set is H1 cells. Description: Cytotoxicity in H1 cells (72 hours, cell count). The class given is cell-based. To be noted: summary statement, cells not specified. On the procedure:
Inhibitory effect of compounds on EBV: The CD50 was performed by
exposing Hl cells to different concentrations of the compounds in normal
growth medium at 37° C. for 72 hours; the cells were then counted
and compared with controls. Hl cells were treated for 5 days and the […]

The subject of the next data set is EBV. Put plainly: Inhibitory effect on EBV in H1 cells, bioassay by EBV DP activity in superinfected Raji cells. The class given is cell-based, Epstein-Barr virus. The note with it: EBV ID90 vs H1 cell CD50. On the procedure:
(§1) H1 cells were maintained in […] growth for two days prior to the initiation of treatment. The cells were centrifuged at 600 g for 10 min. at room temperature to separate them from the medium containing pre-existing virus particles. The H1 cells were seeded in 24 well plates at a density of 1×10^5 cells per well in 2 ml of fresh medium with or without drug and incubated at 37° C. for 5 days. The medium containing virion was saved and used for evaluating the inhibitory effect of drugs on virus production and infectivity by use of a bioassay. The virion were pelleted from the cell free medium by centrifugation at 45,000 rpm for 90 min. in a SW-50 Ti rotor (Beckman). The virion were resuspended in 1 ml growth medium and then used to infect 1×10^6 Raji cells for 48 hours. Since the level of EBV DP activity in Raji cells post superinfection is proportional to the number of virions added, the EBV specific DP activity induced was able to be measured. The inhibitory drug effect was calculated by comparing the EBV DP activity to multiple dilution controls.
and compared with controls. Hl cells were treated for 5 days and the
ID90 was determined by bioassay.

The test system of another data set is mitochondrial DNA. Put plainly: Mitochondrial DNA content in H1 cells (slot blot assay). The class given is cell-based, human. To be noted: 1 mM, 6 days. On the procedure:
as §1
Slot Blot Assay--The amount of mitochondrial DNA was measured by the slot blot method (2). […] The amount of mitochondrial DNA in the treated and non-treated H1 cells was quantified by densitometer (LKB Ultroscan XL).

Data set [1] in a line: Clearance of L-(-)-FMAU from plasma and liver of mice after oral administration. The class given is in vivo, mouse. As to the method: The clearance of L-(-)-FMAU from the plasma and liver of mice after oral administration was evaluated. Mice were […] with L-(-)-FMAU which was tritium labeled (radiospecificity of […]).
FIG. 11 is a graph of the plasma concentration of L-(-)-FMAU in mice after oral administration 10 over time, and FIG. 12 is a graph of the concentration of L-(-)-FMAU in mouse liver after oral administration over time (cross, 10 mg/kg administered bid (bi-daily) for 30 days prior to pharmacokinetic study and then study carried out on day thirty one on administration of same concentration; dark circle, 50 mg/kg administered bid for 30 days prior to study and then study carried out on day thirty one on administration of same concentration; open circle, 50 mg/kg administered for the first time on the first day of the study).
At the times indicated (see FIGS. 10 and 11) the mice were bled from their retro-orbital sinus using heparinized capillaries. The plasma was extracted with trichloroacetic acid and neutralized with freon/trioctylamine. Supernatants were directly counted and the concentration calculated.

The nature of data set [2]: Toxicity in BDF1 female mice, change in body weight over thirty days. The class given is in vivo, mouse. As to the method: FIG. 13a illustrates the change in body weight over thirty days of control BDF1 female mice. FIGS. 13b and 13c illustrate the change in body weight over thirty days of BDF1 female mice dosed with 10 mg/kg (13b) and 50 mg/kg (13c) bid of L-(-)-FMAU. The body weight presented represents the mean and standard deviation of that of five to seven mice.

Data set [3] can be described thus: Clinical chemistry of mouse plasma after L-(-)-FMAU treatment. The class given is in vivo. To be noted: 10 or 50 mg/kg bid for thirty days. On the procedure: FIGS. 14-20 provide the clinical chemistry of mouse plasma after administration of L-(-)-FMAU at 10 mg/kg (three mice) or 50 mg/kg (three mice) bid for thirty days.
Setting [4] is: with the exception of mouse 50-2.

On to `Cc1cn([C@H]2O[C@@H](CO)[C@H](O)[C@H]2F)c(=O)[nH]c1=O` [L-FMAU, 2'-fluoro-5-methyl-β-L-arabinofuranosyluridine], for which, in the data set on H1 cells, the “cytotoxicity (in words)” value is given as “low cytotoxicity”. For the same compound, in the data set on EBV, the “Therapeutic Index (CD50 /ID90)” value is given as 200. In addition, in the data set with mitochondrial DNA, the “inhibition of mitochondrial DNA content in H1 cells” value is “No inhibition”. The “time of peak concentration in liver” value in data set [1] (10 or 50 mg/kg, liver) is recorded as “approximately one”. The clearance from liver entry in data set [1] (liver) is “substantially cleared from both plasma and liver after four hours”. In addition, the clearance from plasma result in data set [1] (plasma) was “substantially cleared from both plasma and liver after four hours”. In addition, in data set [2] (BDF1 female mice, 10 and 50 mg/kg bid, thirty days), the tolerability result is reported as “well tolerated”. The “change in body weight” value in data set [2] (mouse, in vivo) was “did not appear to significantly affect the weight of the mice over thirty days”. For the same compound, in data set [3], the “lactic acid in mouse plasma” value is reported as “not significantly different from those of the control mice”, the “lactic dehydrogenase in mouse plasma” value is listed as “not significantly different from those of the control mice” and the “total bilirubin in mouse plasma” value is recorded as “fall within the normal human range (less than 1.2 mg/dL)”. Also, the “alkaline phosphatase in mouse plasma” value in data set [3] (normal human level 30-114 U/L) is “somewhat higher than the normal human level”. In data set [3] (setting [4]), the “ALT (SGPT) in mouse plasma” value is “not different from those of the control mice” and the “creatinine in mouse plasma” value is “not different from those of the control mice”. In addition, the “AST (SGOT) in mouse plasma” value in data set [3] (with the exception of mouse 50-2 and mouse 10-2) is “not different from those of the control mice”.
For `O=c1[nH]c(=O)n([C@@H]2O[C@H](CO)[C@@H](O)[C@@H]2F)cc1I` [D-FIAU], the “Therapeutic Index (CD50 /ID90)” value in the data set on EBV stood at 40.
For `Nc1nc2c(ncn2COCCO)c(=O)[nH]1` [ACV], in the data set on EBV, the “Therapeutic Index (CD50 /ID90)” value is reported as 20.
`CCc1cn([C@H]2O[C@@H](CO)[C@H](O)[C@H]2F)c(=O)[nH]c1=O` [L-FEAU, 2'-fluoro-5-ethyl-β-L-arabinofuranosyluridine]: the “Therapeutic Index (CD50 /ID90)” value in the data set on EBV was found to be 15.
Regarding `CCc1cn([C@@H]2O[C@H](CO)[C@@H](O)[C@@H]2F)c(=O)[nH]c1=O` [D-FEAU], the “Therapeutic Index (CD50 /ID90)” value with EBV is reported as 2000.
As to `Nc1nc(=O)n([C@@H]2O[C@H](CO)[C@@H](O)[C@@H]2F)cc1I` [D-FIAC], in the data set on EBV, the “Therapeutic Index (CD50 /ID90)” value came out at 25.
With `Cc1cn([C@@H]2O[C@H](CO)[C@@H](O)[C@@H]2F)c(=O)[nH]c1=O` [D-FMAU], the “Therapeutic Index (CD50 /ID90)” value with EBV is 50.
As to `O=c1[nH]c(=O)n([C@H]2O[C@@H](CO)[C@H](O)[C@H]2F)cc1I` [L-FIAU, 2'-fluoro-5-iodo-β-L-arabinofuranosyluridine], in the data set on EBV, the “Therapeutic Index (CD50 /ID90)” value turned out to be 12.
Take `O=C(O)P(=O)(O)O` [PFA]: in the data set with EBV, the “Therapeutic Index (CD50 /ID90)” value was 16.
Regarding `Nc1nc(=O)n([C@H]2O[C@@H](CO)[C@H](O)[C@H]2F)cc1I` [L-FIAC, 2'-fluoro-5-iodo-β-L-arabinofuranosylcytosine], the “Therapeutic Index (CD50 /ID90)” value with EBV is given as above 40.
Consider `Nc1nc2c(ncn2CCC(CO)CO)c(=O)[nH]1` [PCV], for which the “Therapeutic Index (CD50 /ID90)” value in the data set with EBV is listed as 25.
The same measure, in the same setting: the value for `Nc1nc2c(ncn2COC(CO)CO)c(=O)[nH]1` [DHPG] was 15.
